Measurements as given in US20100099756A1, “USES OF INCENSOLE, INCENSOLE ACETATE AND DERIVATIVES THEREOF” (YISSUM RESEARCH DEVELOPMENT COMPANY OF THE HEBREW …, priority 2006, published 2010).

Columns and labels:
[1] = tested on: locomotion and cataleptic response; assay: Open field test and ring test; type: in vivo, female Sabra mice; conditions: i.p., Sabra mice
Method: To study the functional effects of IA on the CNS, IA was assayed in a panel of standard behavioral assays in mice (female Sabra strain, 15-20 weeks old), namely: the elevated plus maze [Crawley, J. N. What's Wrong with my Mouse? Behavioral Phenotyping of Transgenic and Knockout Mice (Wiley-Liss, New York, 2000)], the Porsolt forced-swimming test [Petit-Demouliere, B., Chenu, F. & Bourin, M. Forced swimming test in mice: a review of antidepressant activity. Psychopharmacology 177, 245-255 (2005)], locomotion in the open field test and cataleptic response in a ring test [Fride, E. & Mechoulam, R. Pharmacological activity of the cannabinoid receptor agonist, anandamide, a brain constituent. Eur. J. Pharmacol. 231, 313-314 (1993). The elevated plus maze assay is based on the preference of mice for the closed arms of a maze, apparently due to fear of open spaces.

rat-TRPV2 = molecular target: T1, rat-TRPV2 (Rattus norvegicus, UniProt Q9WUD2); assay: Calcium imaging of HEK293 cells transiently transfected with rat-TRPV2; type: cell-based; conditions: IA 100 μM
T1 construct: expressed in transfected cells; host or cells: HEK293 (transient, lipofectamine)
From the text: All error bars indicate SEM; p values in all subfigures but c represent analysis with one-way ANOVA Bonferroni's post hoc.
HEK293 cells were transiently transfected with a rat TRPV2 plasmid using lipofectamine reagent (Invitrogen, Carlsbad, Calif.) according to manufacturer's protocol. They were then maintained in Dulbecco's modified Eagle Medium/10% fetal calf serum supplemented with Penicillin, Streptomycin, and L-glutamine. Primary keratinocytes from TRPV3-deficient and TRPV3+/+ mouse pups (day 1-4) were harvested and cultured as described previously [Chung, M. K., Lee, H., Mizuno, A., Suzuki, M. & Caterina, M. J. TRPV3 and TRPV4 mediate warmth-evoked currents in primary mouse keratinocytes. J. Biol. Chem. 279, 21569-21575 (2004)].
For single cell calcium imaging, HEK293-rat TRPV2 and HEK293-mouse TRPV3-YFP expressing cells were plated on collagen-coated glass cover slips. Cells were loaded for 60 min with 3 μM Fura-2 AM.

ROS generation = assay: ROS production by zymosan-activated RAW 264.7 macrophages (chemiluminescence); type: cell-based, mice
Method: (A(1)) Representative Western Blot bands of Cox2 are shown with tubulin as reference. (A(2)) COX-2 levels were measured in RAW 264.7 cells incubated for 24 hrs. with LPS in the presence or in the absence of IA (60 μM/ml); **, p<0.001. (B) Murine peritoneal macrophages were activated by LPS (1 μg/ml for 24 hrs.) in absence of IA or in the presence of IA at indicated concentrations. NO generation was determined by measuring the nitrite accumulated in the supernatants; **, p<0.001. (C) Generation of ROS by RAW 264.7 macrophages (5×10^5 cells in 0.5 ml Hanks' balanced salt solution) was measured by chemiluminescence. Cells were pre-incubated with various doses of IA for 24 hrs before luminol (10 μl) and zymosan (30 μl) were added to the tubes; *, p<0.05; **, p<0.01; ***, p<0.001
ROS (Reactive Oxygen Species) Production by RAW 264.7 Macrophages. Raw 264.7 cells were scrapped, washed and resuspended in Hanks' balanced salt solution (without phenol red). For measurement of chemiluminescence, 0.5 ml of cell suspension (5×10^5 cells) was added to each luminometer tube, together with various doses of IA tested (dissolved in ethanol and further diluted with Hanks). […] 10 μl of luminol (Sigma, St. Louis, USA) and 30 μl of zymosan (Sigma, St. Louis, USA) were added to the tubes, and the chemiluminescence was measured immediately in a luminometer (Biolumate LB 95, Berhold, Wilbad, Germany).

T1 sequence (Q9WUD2 whole entry): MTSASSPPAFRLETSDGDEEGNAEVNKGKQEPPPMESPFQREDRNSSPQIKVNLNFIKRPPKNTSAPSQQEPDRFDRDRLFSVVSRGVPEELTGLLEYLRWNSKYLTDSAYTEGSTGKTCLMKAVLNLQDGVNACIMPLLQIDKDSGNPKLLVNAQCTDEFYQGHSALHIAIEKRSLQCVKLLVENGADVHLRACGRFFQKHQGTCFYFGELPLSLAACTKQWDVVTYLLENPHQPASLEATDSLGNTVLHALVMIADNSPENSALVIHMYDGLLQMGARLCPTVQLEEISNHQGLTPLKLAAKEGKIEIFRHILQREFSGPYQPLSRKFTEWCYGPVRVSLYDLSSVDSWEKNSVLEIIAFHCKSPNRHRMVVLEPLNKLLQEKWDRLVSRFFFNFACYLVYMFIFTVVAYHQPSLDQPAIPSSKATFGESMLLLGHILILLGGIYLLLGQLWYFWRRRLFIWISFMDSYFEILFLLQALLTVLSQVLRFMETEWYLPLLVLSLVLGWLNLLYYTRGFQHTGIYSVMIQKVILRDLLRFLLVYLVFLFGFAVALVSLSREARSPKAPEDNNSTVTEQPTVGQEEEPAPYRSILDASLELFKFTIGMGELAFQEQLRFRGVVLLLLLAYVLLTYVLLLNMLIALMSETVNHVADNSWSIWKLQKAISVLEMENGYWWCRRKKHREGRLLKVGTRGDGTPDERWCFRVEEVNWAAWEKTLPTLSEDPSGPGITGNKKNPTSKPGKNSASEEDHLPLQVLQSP

Question: With `CC(=O)OC1CC/C(C)=C/CC/C(C)=C/CC2(C(C)C)CCC1(C)O2` (centres unmarked) [IA, incensole acetate] as the compound, how does the “immobility on a ring” value [1] read?
Answer: impaired immobility on a ring

Question: What about the open field behavior [1] of the same compound?
Answer: significant reduction of open field behavior

Question: What about the “calcium influx in rat-TRPV2 transfected HEK293 cells” value (rat-TRPV2) of the same compound?
Answer: did not induce calcium influx

Question: What about the inhibition at 60 µM (ROS generation; Mus musculus, RAW264.7, at 60 μM, p=0.0021) of the same compound?
Answer: ~45%

Question: What about the “ROS generation, dose dependence” value (ROS generation; three concentrations, 24 hrs pre-incubation, ANOVA P<0.0001) of the same compound?
Answer: significant dose-dependent inhibitory effect
